Test results from ChEMBL document CHEMBL3885881, “DrugMatrix”.

Species on record: Rattus norvegicus
Assay: DrugMatrix - Regimen: Daily Repeat
Format: toxicity, organism-based, Sprague-Dawley
Design: regimen Daily Repeat, gender Male, age 6-8 weeks
Details: in vivo, po, route oral GAVAGE, vehicle 100 % WATER; for ABSOLUTE BASOPHIL / ABSOLUTE EOSINOPHIL / ABSOLUTE LYMPHOCYTE / ABSOLUTE MONOCYTE / ABSOLUTE SEGMENTED NEUTROPHIL / BASOPHIL / EOSINOPHIL / ERYTHROCYTE COUNT / HEMATOCRIT / HEMOGLOBIN / LEUKOCYTE COUNT / LYMPHOCYTE / MEAN CORPUSCULAR HEMOGLOBIN / MEAN CORPUSCULAR HEMOGLOBIN CONCENTRATION / MEAN CORPUSCULAR VOLUME / MONOCYTE / NEUTROPHIL / NUCLEATED RED BLOOD CELLS / PLATELET COUNT: tissue Blood; for ALANINE AMINOTRANSFERASE / ALBUMIN / ALKALINE PHOSPHATASE / ASPARTATE AMINOTRANSFERASE / BLOOD UREA NITROGEN / CARBON DIOXIDE / CHLORIDE / CHOLESTEROL / CREATINE PHOSPHOKINASE / CREATININE / GLUCOSE / LACTATE DEHYDROGENASE / LIPASE / PHOSPHORUS / POTASSIUM / SODIUM / TOTAL BILIRUBIN / TOTAL PROTEIN / URIC ACID: tissue Plasma
[1] = 0.3 mg/kg, 120 h, dose level Low, time 5 day
[2] = 6 mg/kg, 72 h, dose level High, time 3 day
[3] = 6 mg/kg, 120 h, dose level High, time 5 day

For Clc1cccc(Cl)c1N=C1NCCN1 [CLONIDINE], the “ABSOLUTE BASOPHIL” value [1] was 0 CELLS/uL, the “ABSOLUTE EOSINOPHIL” value [1] was 0 CELLS/uL and the “ABSOLUTE LYMPHOCYTE” value [1] was 12125.33 CELLS/uL. For the same molecule, the “ABSOLUTE MONOCYTE” value [1] was 52.33 CELLS/uL, the “ABSOLUTE SEGMENTED NEUTROPHIL” value [1] was 1322.33 CELLS/uL and the BASOPHIL [1] was 0%. For the same molecule, the EOSINOPHIL [1] was 0%, the “ERYTHROCYTE COUNT” value [1] was 5.47 x10E6/uL and the HEMATOCRIT [1] was 34.07%. For the same molecule, the HEMOGLOBIN [1] was 13.73 G/DL, the “LEUKOCYTE COUNT” value [1] was 13.5 x10E3/uL and the LYMPHOCYTE [1] was 89.33%. For the same molecule, the “MEAN CORPUSCULAR HEMOGLOBIN” value [1] was 25.13 pg, the “MEAN CORPUSCULAR HEMOGLOBIN CONCENTRATION” value [1] was 40.3 G/DL and the “MEAN CORPUSCULAR VOLUME” value [1] was 62.3 fL. For the same molecule, the MONOCYTE [1] was 0.33%, the NEUTROPHIL [1] was 10.33% and the “NUCLEATED RED BLOOD CELLS” value [1] was 0 /100WBC. For the same molecule, the “PLATELET COUNT” value [1] was 1266.67 x10E3/uL, the “ALANINE AMINOTRANSFERASE” value [1] was 49.67 u/L and the ALBUMIN [1] was 4.07 G/DL. The “ALKALINE PHOSPHATASE” value [1] was 360 u/L, the “ASPARTATE AMINOTRANSFERASE” value [1] was 94 u/L and the “BLOOD UREA NITROGEN” value [1] was 19 mg/dL. The “CARBON DIOXIDE” value [1] was 27 mmol/L, the CHLORIDE [1] was 100.67 MEQ/L and the CHOLESTEROL [1] was 70 mg/dL. For the same molecule, the “CREATINE PHOSPHOKINASE” value [1] was 371.67 u/L, the CREATININE [1] was 0.17 mg/dL and the GLUCOSE [1] was 134.33 mg/dL. The “LACTATE DEHYDROGENASE” value [1] was 289.33 u/L, the LIPASE [1] was 9 u/L and the PHOSPHORUS [1] was 11.17 mg/dL. The POTASSIUM [1] was 6.28 MEQ/L, the SODIUM [1] was 140.53 MEQ/L and the “TOTAL BILIRUBIN” value [1] was 0.1 mg/dL. For the same molecule, the “TOTAL PROTEIN” value [1] was 5.57 G/DL, the “URIC ACID” value [1] was 1.57 mg/dL and the “ABSOLUTE BASOPHIL” value [2] was 0 CELLS/uL. For the same molecule, the “ABSOLUTE EOSINOPHIL” value [2] was 0 CELLS/uL, the “ABSOLUTE LYMPHOCYTE” value [2] was 11339 CELLS/uL and the “ABSOLUTE MONOCYTE” value [2] was 767 CELLS/uL. For the same molecule, the “ABSOLUTE SEGMENTED NEUTROPHIL” value [2] was 6827.33 CELLS/uL, the BASOPHIL [2] was 0% and the EOSINOPHIL [2] was 0%. For the same molecule, the “ERYTHROCYTE COUNT” value [2] was 6.6 x10E6/uL, the HEMATOCRIT [2] was 40.63% and the HEMOGLOBIN [2] was 16.17 G/DL. For the same molecule, the “LEUKOCYTE COUNT” value [2] was 18.93 x10E3/uL, the LYMPHOCYTE [2] was 61.33% and the “MEAN CORPUSCULAR HEMOGLOBIN” value [2] was 24.47 pg. For the same molecule, the “MEAN CORPUSCULAR HEMOGLOBIN CONCENTRATION” value [2] was 39.8 G/DL, the “MEAN CORPUSCULAR VOLUME” value [2] was 61.5 fL and the MONOCYTE [2] was 4%. For the same molecule, the NEUTROPHIL [2] was 34.67%, the “NUCLEATED RED BLOOD CELLS” value [2] was 0 /100WBC and the “PLATELET COUNT” value [2] was 1516.67 x10E3/uL. The “ALANINE AMINOTRANSFERASE” value [2] was 61 u/L, the ALBUMIN [2] was 3.93 G/DL and the “ALKALINE PHOSPHATASE” value [2] was 306.67 u/L. The “ASPARTATE AMINOTRANSFERASE” value [2] was 172.33 u/L, the “BLOOD UREA NITROGEN” value [2] was 58 mg/dL and the “CARBON DIOXIDE” value [2] was 23.33 mmol/L. The CHLORIDE [2] was 96 MEQ/L, the CHOLESTEROL [2] was 67.33 mg/dL and the “CREATINE PHOSPHOKINASE” value [2] was 987.33 u/L. The CREATININE [2] was 0.52 mg/dL, the GLUCOSE [2] was 154.33 mg/dL and the “LACTATE DEHYDROGENASE” value [2] was 310.33 u/L. For the same molecule, the LIPASE [2] was 8 u/L, the PHOSPHORUS [2] was 12.97 mg/dL and the POTASSIUM [2] was 6.5 MEQ/L. The SODIUM [2] was 140.77 MEQ/L, the “TOTAL BILIRUBIN” value [2] was 0.27 mg/dL and the “TOTAL PROTEIN” value [2] was 6.13 G/DL. For the same molecule, the “URIC ACID” value [2] was 2.17 mg/dL, the “ABSOLUTE BASOPHIL” value [3] was 0 CELLS/uL and the “ABSOLUTE EOSINOPHIL” value [3] was 46 CELLS/uL. The “ABSOLUTE LYMPHOCYTE” value [3] was 9488.67 CELLS/uL, the “ABSOLUTE MONOCYTE” value [3] was 118.67 CELLS/uL and the “ABSOLUTE SEGMENTED NEUTROPHIL” value [3] was 2180 CELLS/uL. The BASOPHIL [3] was 0%, the EOSINOPHIL [3] was 0.33% and the “ERYTHROCYTE COUNT” value [3] was 6.57 x10E6/uL. For the same molecule, the HEMATOCRIT [3] was 38.83%, the HEMOGLOBIN [3] was 15.23 G/DL and the “LEUKOCYTE COUNT” value [3] was 11.83 x10E3/uL. For the same molecule, the LYMPHOCYTE [3] was 81.33%, the “MEAN CORPUSCULAR HEMOGLOBIN” value [3] was 23.2 pg and the “MEAN CORPUSCULAR HEMOGLOBIN CONCENTRATION” value [3] was 39.23 G/DL. For the same molecule, the “MEAN CORPUSCULAR VOLUME” value [3] was 59.1 fL, the MONOCYTE [3] was 1% and the NEUTROPHIL [3] was 17.33%. The “NUCLEATED RED BLOOD CELLS” value [3] was 0 /100WBC, the “PLATELET COUNT” value [3] was 916 x10E3/uL and the “ALANINE AMINOTRANSFERASE” value [3] was 33.67 u/L. The ALBUMIN [3] was 4.07 G/DL, the “ALKALINE PHOSPHATASE” value [3] was 207 u/L and the “ASPARTATE AMINOTRANSFERASE” value [3] was 74 u/L. For the same molecule, the “BLOOD UREA NITROGEN” value [3] was 20.67 mg/dL, the “CARBON DIOXIDE” value [3] was 30.67 mmol/L and the CHLORIDE [3] was 104 MEQ/L. The CHOLESTEROL [3] was 62.67 mg/dL, the “CREATINE PHOSPHOKINASE” value [3] was 177 u/L and the CREATININE [3] was 0.25 mg/dL. For the same molecule, the GLUCOSE [3] was 163 mg/dL, the “LACTATE DEHYDROGENASE” value [3] was 128 u/L and the LIPASE [3] was 9 u/L. For the same molecule, the PHOSPHORUS [3] was 8.13 mg/dL, the POTASSIUM [3] was 5.61 MEQ/L and the SODIUM [3] was 148.9 MEQ/L. The “TOTAL BILIRUBIN” value [3] was 0.2 mg/dL, the “TOTAL PROTEIN” value [3] was 5.9 G/DL and the “URIC ACID” value [3] was 0.7 mg/dL.
